Laboratory results as given in PMC12363342, “Investigating the N-terminal linker histone H1 subtypes as substrates for JmjC lysine demethylases” (RSC Chemical Biology, 2025).
Square brackets hold non-standard residues; d marks the D form. Ends that are not written are not given here. Lys(Me2) = CN(C)CCCC[C@H](N)C(=O)O

Columns and labels:
[1] = system: KDM3A; experiment: LC-MS demethylation activity assay, KDM3A; type: biochemical, human; conditions: 2 μM KDM, 10 μM H1/H3 peptide, 10 μM FAS, 100 μM LAA, 20 μM 2OG, 50 mM HEPES pH 7.5, 2 h, room temperature; for KDM3A demethylation activity, M: M (mono-) initial methylation state; for KDM3A demethylation activity, D: D (di-) initial methylation state
Procedure: (§1) The substrate specificity of JmjC KDMs for H1 was examined using liquid chromatography coupled to mass spectrometry (LC-MS) assays. The H1 peptides (10 μM) were incubated with the recombinant KDM (2 μM) in HEPES buffer at pH 7.5 at room temperature for 2 h, in the presence of ferrous(II) ammonium sulfate (FAS, 10 μM), sodium ascorbate (LAA, 100 μM) and 2OG (20 μM), and then quenched with formic acid. N^ε-Methylated H3K9 and H3K36 peptides were used as positive controls (Fig. 3–5 and Fig. S2–S6).[26]
(§2) The catalytic domains of the JmjC KDMs used were recombinantly produced as reported in either Escherichia coli (KDM4AM1-L359,[38] KDM4DM1-L359,[39] KDM4EM1-R336,[30] KDM6BD1141–E1590[40] and KDM3CL2157-L2500) or Sf9 cells (KDM3AT515–S1317, KDM3B882–1761, and KDM5DM1-D775) as N-terminally His6-tagged proteins. […] To produce proteins, DNA sequences encoding for KDM3A, KDM3B and KDM5D were inserted into the pFB-LIC vector, containing a TEV-protease cleavable N-terminal 6x-histidine tag via ligation independent cloning (LIC). The resultant plasmids were transformed into baculovirus and Sf9 cells ([…]) which were infected with the virus stock. The cells were grown at 27 °C and 90 rpm for 70 h. Cells were then harvested and suspended in 100 mL of lysis buffer (50 mM HEPES-NaOH, pH 7.4, 500 mM NaCl, 20 mM imidazole, 0.5 mM Tris (2-carboxyethyl)phosphine (TCEP), 5% (v/v) glycerol). […] The supernatant was loaded onto a Ni-NTA gravity column, washed with 10 column volume of lysis buffer and eluted using the elution buffer (50 mM HEPES-NaOH, pH 7.4, 500 mM NaCl, 300 mM imidazole, 0.5 mM TCEP, 5% (v/v) glycerol). The eluted protein was further purified using S200 gel filtration column chromatography (50 mM HEPES-NaOH, pH 7.4, 150 mM NaCl, 0.5 mM TCEP and 5% glycerol). Protein purity was analysed by SDS-PAGE and further confirmed by mass spectrometry. Selected fractions were pooled, concentrated and stored at −80 °C.
(§3) All reagents were purchased from Sigma Aldrich and were of the highest grade available. Ferrous(II) ammonium sulfate (FAS) solutions were prepared freshly by dissolving FAS to 400 mM in 20 mM HCl with subsequent dilution to 1 mM using deionized water. Fresh 2OG (10 mM) and LAA (50 mM) solutions were prepared by dissolving the solids in deionised water. All enzyme reactions were performed in 384-well plates (Greiner Bio-One) with a final reaction volume of 50 μL. Substrate mixtures contained 50 mM HEPES pH 7.5, LAA (100 μM), FAS (10 μM), 2OG (20 μM) and an H1 isoform peptide (10 μM). Reactions were initiated by the addition of enzyme to a final concentration of 2.0 μM. After 2 h, the reactions were stopped by the addition of 5 μL of 10% (v/v) LC-MS grade formic acid (Fisher Scientific) to a final concentration of 1% (v/v). Product analyses were performed by liquid chromatography-mass spectrometry (LC-MS) using an Agilent 1290 infinity II LC system equipped with an Agilent 1290 multisampler and an Agilent 1290 high speed pump and connected to an Agilent 6550 accurate mass iFunnel quadrupole time of flight (Q-TOF) mass spectrometer. 1 μL of the reaction mixture was injected onto a 1.8 μm × 2.1 × 50 mm ZORBAX RRHD Eclipse Plus C18 column (Agilent). Solvent A consisted of HPLC grade water containing 0.1% (v/v) formic acid and solvent B consisted of MeCN containing 0.1% (v/v) formic acid. Peptides were separated using a stepwise gradient (0 min – 95% solvent A, 1.0 min – 80% solvent A, 3.0 min – 45% solvent A, 4.0 min – 45% solvent A, 5.0 min – 0% solvent A, 6.0 min – 0% solvent A, 7.0 min – 95% solvent A). This was followed by a 3 min post-run with 95% solvent A to re-equilibrate the column. All flow rates were 0.2 mL min^−1. A blank injection of HPLC grade water was carried out between each sample injection.

[2] = system: KDM3B; experiment: LC-MS demethylation activity assay, KDM3B; type: biochemical, human; conditions: 2 μM KDM, 10 μM H1/H3 peptide, 10 μM FAS, 100 μM LAA, 20 μM 2OG, 50 mM HEPES pH 7.5, 2 h, room temperature; for KDM3B demethylation activity, M: M (mono-) initial methylation state; for KDM3B demethylation activity, D: D (di-) initial methylation state
Procedure: as §1, §2, §3

[3] = system: KDM4A; experiment: LC-MS demethylation activity assay, KDM4A; type: biochemical, human; conditions: 2 μM KDM, 10 μM H1/H3 peptide, 10 μM FAS, 100 μM LAA, 20 μM 2OG, 50 mM HEPES pH 7.5, 2 h, room temperature; for KDM4A demethylation activity, M: M (mono-) initial methylation state; for KDM4A demethylation activity, D: D (di-) initial methylation state
Procedure: as §1, §2, §3

[4] = biological target: T1, KDM4D (Homo sapiens, UniProt Q6B0I6); experiment: LC-MS demethylation activity assay, KDM4D; type: biochemical; conditions: 10 μM FAS, 100 μM LAA, 20 μM 2OG, room temperature; for KDM4D demethylation activity, M / KDM4D demethylation activity, D: 2 μM KDM, 10 μM H1/H3 peptide, 50 mM HEPES pH 7.5, 2 h; for KDM4D demethylation activity, M: M (mono-) initial methylation state; for substrate conversion (demethylation) by KDM4D: 2 μM KDM4D, 10 μM peptide, HEPES pH 7.5, 2 h; for KDM4D demethylation activity, D: D (di-) initial methylation state
T1 construct: KDM4AM1-L359,[38]; KDM4DM1-L359,[39]; KDM4EM1-R336,[30]; His6 (N); made in house; host or cells: Escherichia coli
T1 sequence (Q6B0I6 1-359): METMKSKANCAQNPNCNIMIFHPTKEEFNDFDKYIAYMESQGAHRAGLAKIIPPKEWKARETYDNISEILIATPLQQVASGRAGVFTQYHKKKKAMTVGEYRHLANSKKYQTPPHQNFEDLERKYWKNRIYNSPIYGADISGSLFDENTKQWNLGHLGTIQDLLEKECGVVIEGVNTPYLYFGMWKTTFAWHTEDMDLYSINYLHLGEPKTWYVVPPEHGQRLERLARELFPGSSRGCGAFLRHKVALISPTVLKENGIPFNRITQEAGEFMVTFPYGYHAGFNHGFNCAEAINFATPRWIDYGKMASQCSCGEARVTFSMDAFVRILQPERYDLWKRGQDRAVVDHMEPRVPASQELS
Procedure: as §1, §2, §3

[5] = system: KDM3C; experiment: LC-MS demethylation activity assay, KDM3C; type: biochemical, human; conditions: 2 μM KDM, 10 μM H1/H3 peptide, 10 μM FAS, 100 μM LAA, 20 μM 2OG, 50 mM HEPES pH 7.5, 2 h, room temperature; for KDM3C demethylation activity, M: M (mono-) initial methylation state; for KDM3C demethylation activity, D: D (di-) initial methylation state
Procedure: as §1, §2, §3

[6] = system: KDM6B; experiment: LC-MS demethylation activity assay, KDM6B; type: biochemical, human; conditions: 2 μM KDM, 10 μM H1/H3 peptide, 10 μM FAS, 100 μM LAA, 20 μM 2OG, 50 mM HEPES pH 7.5, 2 h, room temperature; for KDM6B demethylation activity, M: M (mono-) initial methylation state; for KDM6B demethylation activity, D: D (di-) initial methylation state
Procedure: as §1, §2, §3

[7] = system: KDM5D; experiment: LC-MS demethylation activity assay, KDM5D; type: biochemical, human; conditions: 2 μM KDM, 10 μM H1/H3 peptide, 10 μM FAS, 100 μM LAA, 20 μM 2OG, 50 mM HEPES pH 7.5, 2 h, room temperature; for KDM5D demethylation activity, M: M (mono-) initial methylation state; for KDM5D demethylation activity, D: D (di-) initial methylation state
Procedure: as §1, §2, §3

[8] = biological target: T2, KDM4E (Homo sapiens, UniProt B2RXH2); experiment: LC-MS demethylation activity assay, KDM4E; type: biochemical; conditions: room temperature; for mono-methylated product formed by KDM4E: 2 μM KDM4E, 10 μM peptide, standard conditions, 2 h; for KDM4E demethylation activity, D / KDM4E demethylation activity, M: 2 μM KDM, 10 μM H1/H3 peptide, 10 μM FAS, 100 μM LAA, 20 μM 2OG, 50 mM HEPES pH 7.5, 2 h; for KDM4E demethylation activity, D: D (di-) initial methylation state; for KDM4E demethylation activity, M: M (mono-) initial methylation state
T2 construct: KDM4DM1-L359,[39]; KDM4EM1-R336,[30]; His6 (N); made in house; host or cells: Escherichia coli
T2 sequence (B2RXH2 1-336): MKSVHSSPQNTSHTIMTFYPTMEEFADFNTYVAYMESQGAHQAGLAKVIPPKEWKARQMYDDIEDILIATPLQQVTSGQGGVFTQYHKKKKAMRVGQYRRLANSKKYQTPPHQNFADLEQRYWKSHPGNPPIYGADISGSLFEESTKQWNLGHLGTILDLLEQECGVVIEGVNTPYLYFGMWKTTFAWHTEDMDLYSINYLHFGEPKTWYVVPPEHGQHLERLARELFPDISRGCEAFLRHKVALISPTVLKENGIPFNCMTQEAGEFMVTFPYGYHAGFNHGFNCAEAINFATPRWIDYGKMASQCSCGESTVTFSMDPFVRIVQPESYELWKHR
Procedure: as §1, §2, §3

Substance | KDM3A demethylation activity, M [1] | KDM3B demethylation activity, M [2] | KDM4A demethylation activity, M [3] | KDM4D demethylation activity, M [4] | KDM3C demethylation activity, M [5] | KDM6B demethylation activity, M [6] | KDM5D demethylation activity, M [7] | KDM3A demethylation activity, D [1] | KDM3B demethylation activity, D [2] | KDM4A demethylation activity, D [3] | substrate conversion (demethylation) by KDM4D [4] | KDM4D demethylation activity, D [4] | KDM3C demethylation activity, D [5] | KDM6B demethylation activity, D [6] | mono-methylated product formed by KDM4E [8] | KDM4E demethylation activity, D [8] | KDM5D demethylation activity, D [7] | KDM4E demethylation activity, M [8]
KKKAAKKmeAGGTPRKA [Peptide H1.2K26me, 15-mer linker histone H1.2 residues 20-34 peptide, mono-methylated K26] | ● [red] | ● [red] | ● [red] | ● [red] | ● [red] | ● [red] | ● [red] | – | – | – | – | – | – | – | – | – | – | –
KKKAAK[Lys(Me2)]AGGTPRKA [Peptide H1.2K26me2, 15-mer linker histone H1.2 residues 20-34 peptide, di-methylated K26] | – | – | – | – | – | – | – | ● [red] | ● [red] | ● [red] | 20–35% | ● [yellow] (yellow dots indicate moderate demethylation (<50% conversion)) | ● [red] | ● [red] | ~64% | ● [green] (green dots indicate good demethylation (>50% conversion)) | ● [red] | –
KKKAAKmeKAGGTPRKA [Peptide H1.2K25me, 15-mer linker histone H1.2 residues 20-34 peptide, mono-methylated K25] | ● [red] | ● [red] | ● [red] | ● [red] | ● [red] | ● [red] | ● [red] | – | – | – | – | – | – | – | – | – | – | ● [red]
KKKAA[Lys(Me2)]KAGGTPRKA [Peptide H1.2K25me2, 15-mer linker histone H1.2 residues 20-34 peptide, di-methylated K25] | – | – | – | – | – | – | – | ● [red] | ● [red] | ● [black] (black dots indicate low-level demethylation (<10% conversion)) | 20–35% | ● [red] | ● [red] | ● [red] | ~64% | ● [red] | ● [red] | –
KKKAKKmeAGATAGKRK [Peptide H1.3K25me, 15-mer linker histone H1.3 residues 20-34 peptide, mono-methylated K25] | ● [red] | ● [red] | ● [red] | ● [red] | ● [red] | ● [red] | ● [red] | – | – | – | – | – | – | – | – | – | – | ● [red]
KKKAK[Lys(Me2)]AGATAGKRK [Peptide H1.3K25me2, 15-mer linker histone H1.3 residues 20-34 peptide, di-methylated K25] | – | – | – | – | – | – | – | ● [red] | ● [red] | ● [red] | – | ● [red] | ● [red] | ● [red] | – | ● [red] | ● [red] | –
KKKAKmeKAGATAGKRK [Peptide H1.3K24me, 15-mer linker histone H1.3 residues 20-34 peptide, mono-methylated K24] | ● [red] | ● [red] | ● [red] | ● [red] | ● [red] | ● [red] | ● [red] | – | – | – | – | – | – | – | – | – | – | –
KKKARKmeSAGAAKRKA [Peptide H1.4K25me, 15-mer linker histone H1.4 residues 20-34 peptide, mono-methylated K25] | ● [red] | ● [red] | ● [red] | ● [black] (black dots indicate low-level demethylation (<10% conversion)) | ● [red] | ● [red] | ● [red] | – | – | – | – | – | – | – | – | – | – | –
